Results reported in patent US5152784A, “Prosthetic devices coated with a polypeptide with type IV collagen activity” (Regents of the University of Minnesota, priority 1991, dated 1992).
“Also recorded” adds a separate entry of the source.

Legend:
[1] = target: T1, peptide Hep-III (Homo sapiens, UniProt P02462); assay: Competition of 3H-heparin binding to coated peptide Hep-III by glycosaminoglycans; conditions: Hep-III coated from 500 μg/ml; 3H-heparin 50,000 cpm per well; unlabeled glycosaminoglycan in increasing amounts
T1 construct: residues 531-543 from the amino-terminus of the α1 chain of type IV collagen; The single letter amino acid code for this polypeptide is GEFYFDLRLKGDK; made in house; host or cells: chemical solid-phase (Merrifield) peptide synthesis
Description: To check the specificity of the interaction between heparin and peptide Hep-III or whether the heparin structure was also critical to this interaction, heparin along with other sulfated glucosaminoglycans, dextran and chondroitin sulfate were used in competition experiments. A standard amount of […] of a solution containing 500 μg/ml of peptide Hep-III was coated on 96-well plates as described above. Wells were treated for two hours with 2 mg/ml BSA in wash buffer. Then, a final volume of 50 μl was added to each well, containing a standard amount of ^3 H-heparin (50,000 cpm per well) and various amounts of non-radioactive heparin, dextran or chondroitin sulfate. After incubating for two hours at 37° C., the wells were washed and radioactivity was counted as described above in Example 1.

[2] = system: endothelial cells; assay: Inhibition of 125I-Hep-III binding to endothelial cell surface by excess unlabeled peptide; set-up: species or system bovine; conditions: unlabeled peptide up to 500-fold excess; 15 min, 4° C.
Description: (§1) Melanoma and endothelial cells were grown in culture as discussed in Examples 4, 5, 6, and 7A (supra). On the day of the experiment, the cells were harvested by trypsinization (supra) and were co-incubated with 50 μl of peptide Hep-III. 50 μl a constant amount of ^125 I-labeled peptide Hep-III was mixed with increasing concentrations of unlabeled peptide Hep-III or a control peptide (maximal excess of unlabeled peptide: 500-fold over radiolabeled Hep-III). 50 μl of each concentration of unlabeled peptide which was mixed with radiolabeled Hep-III were then added to cells in suspension (5,000 cells per concentration of peptide). The cells were incubated with the mixture of unlabeled-radiolabeled peptide for 15 min. at 4° C. and they were then pelleted. The cells were subsequently washed and bound radioactivity was quantitated as described in Example 7A. […] These experiments provide confirmation that a specific interaction occurs between melanoma and endothelial-cell surfaces and peptide Hep-III.

[3] = Heparin binding to plastic plates coated with peptide
Description: The ability of the synthesized peptide Hep-III to interact with heparin when coated on 96-well plastic plates was evaluated. Stock solutions of peptide Hep-III at a concentration of 500 μg/ml were prepared in phosphate-buffered saline containing 0.02% sodium azide. Fifty μl from each concentration was coated on the 96-well plates and left to dry overnight at 28° C. Then, wells were treated for two hours with […] of 2 mg/ml BSA and 6 mM phosphate, 10 mM NaCl, 68 μM CaCl2, pH 6.8 (wash buffer) in order to minimize non-specific binding. Next 50 μl of ^3 H-heparin (10 μg/ml) was added at increasing concentrations (0 to 1400 ng/well) for two hours at 37° C. The wells were then washed three times with wash buffer containing 0.05% Triton X-100 and finally they were incubated for thirty minutes at 60° C. with 200 μl of 0.5N NaOH and 1% SDS. The amount of ^3 H-heparin bound at each concentration was quantitated with a Beckman LS-3801 liquid scintillation counter. […] Comparison with data obtained using exactly the same methodology indicate that peptide Hep-III is at least 10 times stronger than peptide Hep-I (TS-2 in U.S. Pat. No. 4,876,332) (see FIG. 5B) and about 100 times stronger than type IV collagen, when used in the same coating concentrations.

[4] = system: K-1735-M4 melanoma cells; assay: Adhesion of melanoma cells to peptide-coated wells; assay type: cell-based, murine; conditions: 120 minutes, 37° C.
Text: Highly metastatic murmine melanoma cells, K-1735-M4 were originally provided by Dr. I. J. Fidler of Anderson Hospital, University of Texas Health Sciences Center, Houston, Tex. When the cells were received, a large number of early passage cells were propagated and frozen in liquid nitrogen. The tumor cells are usually cultured in vitro for no longer than six weeks. Following this period, the cells are discarded and new cells withdrawn from storage for use in further in vitro or in vivo experiments. This precaution is taken to minimize phenotypic drift that can occur as a result of continuous in vitro passage. The cells were cultured in Dulbecco's Modified Eagle's Medium containing 5% heat inactivated fetal calf serum. The cultures were grown in 37° C. incubators with a humidified atmosphere containing 5% CO2. Cells were subcultured twice weekly by releasing cells gently from the flask, using 0.05% trypsin and 1 mM EDTA.
Cultures of cells which were 60-80% confluent were metabolically labeled for 24 hours with the addition of 3 mCi/ml of ^3 H-td (tritiated thymidine). On the day of the assay, the cells were harvested by trypsinization, the trypsin was inhibited by the addition of serum, and the cells were washed free of this mixture and resuspended in DMEM buffered with HEPES at pH 7.2. […] The solubilized cells were then quantitated using a liquid scintillation counter. […]

[5] = system: melanoma cells; assay: Inhibition of 125I-Hep-III binding to melanoma cell surface by excess unlabeled peptide; set-up: species or system murine; conditions: unlabeled peptide up to 500-fold excess; 15 min, 4° C.
Description: as §1

[6] = system: endothelial cells; assay: Direct binding of 125I-labeled peptide Hep-III to endothelial cell surface; set-up: species or system bovine; conditions: about 5,000 cells; 15 min, 4° C.; increasing peptide concentrations
Description: (§2) Endothelial and melanoma cells were grown in culture as described in Examples 4, 5, and 6 (supra). Cells used for this type of experiment were not labeled with radioactivity. Unlabeled cells were harvested by trypsinization (supra) on the day of the experiment. About 5,000 cells were mixed with 50 μl of a given concentration of peptide Hep-III in solution. Increasing concentrations of peptide Hep-III were used. The cells were incubated with the iodinated peptide for 15 min. at 4° C. and they were then pelleted by centrifugation. The cells were then resuspended and washed 3 times with DMEM containing 2 mg/ml BSA and 50 mM Hepes. Following the washes, the cells were pelleted for a final time in plastic tubes, the supernatant was decanted and the radioactivity of the pellet was quantitated in a Beckman scintillation counter. The binding of peptide Hep-III to endothelial cells is saturable (FIG. 10B)--an indication of specificity. […] These experiments indicate that peptide Hep-III specificity interacts with the surfaces of both endothelial cells and melanoma.

[7] = system: Bovine aortic endothelial cells; assay: Direct adhesion of endothelial cells to peptide-coated plastic; assay type: cell-based; conditions: coated at increasing concentrations; 120 min, 37° C.
Description: Bovine aortic endothelial cells were isolated according to the following protocol. Aortas were obtained from a local slaughterhouse, washed in cold phosphate buffered saline (PBS) (136 mM NaCl, 2.6 mM KCl, 15.2 mM Na2 HPO4, pH 7.2) and processed within 2 hours. Crude collagenase (CLS III, 125-145 units per mg dry weight, Cooper Biomedical) was used at 2 mg/ml in Dulbecco's modified Eagle's medium (DMEM) (GIBCO). The vessel was clamped at the distal end, filled with the collagenase-PBS solution and digestion was carried out for 10 minutes. The lumenal contents were harvested, followed by the addition of fresh collagenase for two additional 10-minute periods. The enzyme-cell suspensions were added to an equal volume of DMEM containing 10% fetal bovine serum (FBS) to inhibit the enzyme and spun in a centrifuge at 400×g for 10 minutes. The resulting cell pellet was resuspended in DMEM containing 10% FBS, 100 units/ml of penicillin G, 100 μg/ml of streptomycin and 100 μg/ml of crude fibroblast growth factor. Cells are in 75 cm^2 flasks in a humidified 5% CO2 atmosphere at 37° C. Cultures were fed twice a week with the same medium and cells were used in assays when approximately 75% confluent. The cells were labeled for 24 hours prior to use with a mixture of ^35 S-labeled amino acids (3 mCi). […]

[8] = system: melanoma cell line (M4); assay: Inhibition of melanoma cell adhesion to type IV collagen-coated wells by peptide in solution; assay type: cell-based, murine; conditions: cells coincubated 20 min with peptide in solution, then 20 min on collagen-coated wells
Description: Cells were grown, labeled and harvested as described in Example 4, but after detachment and washing they were coincubated for 20 min. in the presence of various concentrations of peptide Hep-III in solution. They were then applied for another 20 min. on type IV collagen-coated plastic wells. At the end of the incubation the same treatment described in Example 4 was used.

[9] = target: T2, type IV collagen (Homo sapiens, UniProt P02462+P08572); assay: Inhibition of 3H-heparin binding to type IV collagen coated on plastic by peptide in solution; conditions: peptide in solution 0.5 mg/ml to 5 μg/ml; 3H-heparin 500 ng per well; type IV collagen coated at 60 μg/ml
T2 construct: intact, native type IV collagen coated on plastic
T2 sequence (P02462 173-1669): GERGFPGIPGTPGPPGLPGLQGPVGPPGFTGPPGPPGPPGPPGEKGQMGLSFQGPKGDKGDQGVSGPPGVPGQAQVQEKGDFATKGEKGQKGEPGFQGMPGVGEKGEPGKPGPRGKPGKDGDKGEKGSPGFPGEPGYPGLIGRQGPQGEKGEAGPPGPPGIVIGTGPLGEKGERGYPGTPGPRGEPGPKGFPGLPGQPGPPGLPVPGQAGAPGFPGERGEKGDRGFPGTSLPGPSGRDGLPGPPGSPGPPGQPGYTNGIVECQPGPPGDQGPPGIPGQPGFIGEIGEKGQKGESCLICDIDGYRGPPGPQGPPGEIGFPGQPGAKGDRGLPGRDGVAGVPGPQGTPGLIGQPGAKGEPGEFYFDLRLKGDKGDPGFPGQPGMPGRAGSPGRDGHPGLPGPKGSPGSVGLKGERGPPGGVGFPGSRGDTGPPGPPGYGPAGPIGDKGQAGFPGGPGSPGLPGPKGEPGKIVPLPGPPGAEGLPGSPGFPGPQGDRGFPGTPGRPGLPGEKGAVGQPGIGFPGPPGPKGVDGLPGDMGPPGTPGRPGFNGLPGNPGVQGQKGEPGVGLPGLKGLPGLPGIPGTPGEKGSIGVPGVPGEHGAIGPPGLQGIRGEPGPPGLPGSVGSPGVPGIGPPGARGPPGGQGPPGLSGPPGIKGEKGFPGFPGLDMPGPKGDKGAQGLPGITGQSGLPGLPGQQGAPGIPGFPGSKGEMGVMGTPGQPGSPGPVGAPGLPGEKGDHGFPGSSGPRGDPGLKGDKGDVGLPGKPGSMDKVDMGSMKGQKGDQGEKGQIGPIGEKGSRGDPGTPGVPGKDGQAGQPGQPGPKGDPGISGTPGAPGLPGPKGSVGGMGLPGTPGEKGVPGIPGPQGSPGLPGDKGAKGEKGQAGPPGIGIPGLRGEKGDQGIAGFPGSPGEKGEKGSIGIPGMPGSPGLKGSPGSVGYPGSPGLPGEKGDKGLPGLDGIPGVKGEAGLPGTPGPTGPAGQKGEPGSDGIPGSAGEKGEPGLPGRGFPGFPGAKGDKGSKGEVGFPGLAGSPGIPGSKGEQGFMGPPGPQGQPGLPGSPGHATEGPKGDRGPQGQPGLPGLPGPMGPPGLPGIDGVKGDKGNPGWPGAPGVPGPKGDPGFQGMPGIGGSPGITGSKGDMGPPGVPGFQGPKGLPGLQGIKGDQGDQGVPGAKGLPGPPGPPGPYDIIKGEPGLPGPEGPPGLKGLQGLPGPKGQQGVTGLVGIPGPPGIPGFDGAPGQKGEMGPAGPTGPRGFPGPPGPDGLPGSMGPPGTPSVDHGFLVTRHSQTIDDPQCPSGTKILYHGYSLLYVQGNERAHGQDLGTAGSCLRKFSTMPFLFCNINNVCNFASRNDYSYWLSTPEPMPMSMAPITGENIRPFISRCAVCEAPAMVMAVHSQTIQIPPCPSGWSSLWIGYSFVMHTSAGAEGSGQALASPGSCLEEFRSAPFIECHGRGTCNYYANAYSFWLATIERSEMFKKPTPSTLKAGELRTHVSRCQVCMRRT
T2 sequence (P08572 184-1712): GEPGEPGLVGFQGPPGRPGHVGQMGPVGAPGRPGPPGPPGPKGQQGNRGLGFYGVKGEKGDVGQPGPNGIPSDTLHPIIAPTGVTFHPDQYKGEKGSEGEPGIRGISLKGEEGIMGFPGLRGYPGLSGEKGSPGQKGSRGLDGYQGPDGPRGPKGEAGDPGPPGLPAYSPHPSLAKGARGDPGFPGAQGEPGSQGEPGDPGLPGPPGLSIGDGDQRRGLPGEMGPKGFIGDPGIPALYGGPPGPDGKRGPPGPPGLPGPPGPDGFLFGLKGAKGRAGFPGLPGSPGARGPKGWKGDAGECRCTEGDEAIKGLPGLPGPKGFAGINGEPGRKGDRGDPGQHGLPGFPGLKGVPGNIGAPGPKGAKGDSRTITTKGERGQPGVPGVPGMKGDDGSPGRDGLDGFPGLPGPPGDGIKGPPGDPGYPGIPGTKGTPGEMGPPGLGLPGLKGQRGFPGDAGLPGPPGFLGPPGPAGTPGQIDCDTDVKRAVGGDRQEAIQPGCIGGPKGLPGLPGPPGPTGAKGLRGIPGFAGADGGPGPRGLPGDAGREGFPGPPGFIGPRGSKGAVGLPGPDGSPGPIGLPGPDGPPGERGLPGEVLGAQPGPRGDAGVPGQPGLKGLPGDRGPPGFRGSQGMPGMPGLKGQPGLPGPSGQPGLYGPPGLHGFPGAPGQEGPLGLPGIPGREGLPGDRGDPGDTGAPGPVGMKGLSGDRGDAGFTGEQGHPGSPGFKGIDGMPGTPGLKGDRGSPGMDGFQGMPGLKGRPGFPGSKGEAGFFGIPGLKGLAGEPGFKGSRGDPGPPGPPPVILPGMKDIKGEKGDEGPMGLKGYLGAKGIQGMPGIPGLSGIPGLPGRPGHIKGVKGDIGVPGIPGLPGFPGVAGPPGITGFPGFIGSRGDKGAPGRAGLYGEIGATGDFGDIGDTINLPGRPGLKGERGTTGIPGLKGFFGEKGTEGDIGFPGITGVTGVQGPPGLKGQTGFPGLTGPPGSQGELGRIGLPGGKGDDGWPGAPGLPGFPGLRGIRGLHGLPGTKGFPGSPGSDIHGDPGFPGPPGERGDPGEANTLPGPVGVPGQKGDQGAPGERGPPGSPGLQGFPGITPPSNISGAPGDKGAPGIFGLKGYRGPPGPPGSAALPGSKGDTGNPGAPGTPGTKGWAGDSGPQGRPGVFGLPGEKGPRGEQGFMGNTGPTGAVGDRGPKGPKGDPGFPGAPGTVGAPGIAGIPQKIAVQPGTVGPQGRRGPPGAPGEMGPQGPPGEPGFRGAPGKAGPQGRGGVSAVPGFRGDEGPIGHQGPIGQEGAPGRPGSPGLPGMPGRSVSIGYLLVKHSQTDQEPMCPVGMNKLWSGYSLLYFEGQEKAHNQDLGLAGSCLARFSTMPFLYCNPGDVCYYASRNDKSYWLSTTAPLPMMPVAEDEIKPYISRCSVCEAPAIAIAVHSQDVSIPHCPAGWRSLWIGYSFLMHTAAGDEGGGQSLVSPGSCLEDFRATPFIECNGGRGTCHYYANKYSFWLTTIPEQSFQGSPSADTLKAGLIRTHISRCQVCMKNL
Description: Peptide Hep-III in solution (and not absorbed to plastic), was screened for the ability to inhibit the binding of heparin to intact, native type IV collagen coated on plastic. This experimental approach avoids problems due to differential coating of peptides in heparin binding assays. Type IV collagen at 60 μg/ml in PBS was coated on 96-well plates, using 50 μl per well and dried overnight at 28° C. The wells were then treated for two hours with 2 mg/ml BSA in wash buffer (described above in Example 1). Peptide Hep-III at various dilutions ranging from 0.5 mg/ml to 5 μg/ml in PBS and CHAPS (cholamido-propyl-dimethyl-ammoniopropane-sulfonate) (a detergent used to avoid non-specific sticking) was co-incubated with a standard amount of ^3 H-heparin (500 ng per well […]) for two hours at 37° C. and the mixture was then transferred to the collagen coated plate (50 μl) and allowed to incubate for another two hours at 37° C. The wells were then washed and radioactivity was counted as described above.

[10] = system: melanoma cells; assay: Direct binding of 125I-labeled peptide Hep-III to melanoma cell surface; set-up: species or system murine; conditions: about 5,000 cells; 15 min, 4° C.; increasing peptide concentrations
Description: as §2

[11] = same methodology, same coating concentrations

## heparin
[1]
  competition for the binding of tritiated heparin to peptide Hep-III: able to compete for the binding of tritiated heparin to peptide Hep-III at very low concentrations

## gly-glu-phe-tyr-phe-asp-leu-arg-leu-lys-gly-asp-lys (GEFYFDLRLKGDK) [Hep-III, …; type IV collagen residues 531-543 from the amino-terminus of the α1 chain]
[2]
  competition of radiolabeled Hep-III binding to endothelial cells by unlabeled peptide: could efficiently compete
[3]; peptide coated on 96-well plastic plates, 3H-heparin 0 to 1400 ng/well, 2 h, 37° C.
  binding of 3H-heparin to coated peptide: extremely potent promoter of heparin-binding to synthetic substrates; also recorded: strong binding to heparin; also recorded: very potent binder of heparin
[3]; [11]
  heparin binding strength relative to peptide Hep-I (TS-2): at least 10 times
  heparin binding strength relative to type IV collagen: about 100 times
[4]; peptide coated at increasing concentrations
  maximal melanoma cell adhesion: 70,000 dpm
[4]; peptide concentration 0.5 μg/well
  melanoma cell adhesion: 80 % of input
[5]
  competition of radiolabeled Hep-III binding to melanoma cells by unlabeled peptide: can be competed only by an excess of unlabeled peptide Hep-III
[6]
  binding of 125I-labeled peptide to endothelial cell surface: saturable
[7]
  endothelial cell adhesion to coated substrate (in words): promotes substantial adhesion of endothelial cells even at very low plating concentrations
[8]
  decrease of melanoma cell binding to type IV collagen-coated substrata: dramatically decrease the binding of melanoma cells
[9]
  inhibition of heparin binding to type IV collagen: strong inhibitor of heparin binding to type IV collagen
[10]
  binding of 125I-labeled peptide to melanoma cell surface: with a tendency for saturation at the higher concentrations used

## dextran
[1]
  competition for the binding of tritiated heparin to peptide Hep-III: substantially more dextran is needed to achieve similar levels of competition

## chondroitin sulfate
[1]
  competition for the binding of tritiated heparin to peptide Hep-III: cannot mimic this effect except at extremely high concentrations
